PMC3172300, “Modulation of Catalytic Activity in Multi-Domain Protein Tyrosine Phosphatases” (PLoS ONE, 2011)
Where “and” joins values, the source holds several entries; their conditions need not be identical. Identical values can stand only once. Like-named read-outs stand apart in the source and are kept apart here. Square brackets hold non-standard residues; d marks the D form. Peptide text beside a SMILES is read from it. pY = N[C@@H](Cc1ccc(OP(=O)(O)O)cc1)C(=O)O

What was measured:
DLAR D2 = target: T1, DLAR D2 (Drosophila melanogaster, UniProt P16621); assay: Surface Plasmon Resonance peptide binding, DLAR D2; settings: column second binding site, single-site model
T1 construct: DLAR 1728-2029; His tag (pET-15b or pET-22b); made in house; host or cells: E. coli BL21(DE3)
T1 sequence (P16621 1728-2029): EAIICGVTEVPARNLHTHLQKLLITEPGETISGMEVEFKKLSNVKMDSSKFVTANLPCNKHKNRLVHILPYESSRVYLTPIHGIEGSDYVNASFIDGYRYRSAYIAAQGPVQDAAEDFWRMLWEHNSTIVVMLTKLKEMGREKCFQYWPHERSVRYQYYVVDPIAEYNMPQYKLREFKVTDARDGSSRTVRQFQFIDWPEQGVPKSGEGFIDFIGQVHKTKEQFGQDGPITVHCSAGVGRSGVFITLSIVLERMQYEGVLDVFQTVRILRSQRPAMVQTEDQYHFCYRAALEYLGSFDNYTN
Protocol: (§1) The binding of phosphotyrosine peptides to the PTP domains was studied by Surface Plasmon Resonance on a Biacore-2000 instrument (BIAcore, AB). All experiments were conducted at 25°C. DLAR PTP domains were immobilized onto carboxylated dextran CM5 chips (BIAcore AB) using the standard amine coupling procedure as recommended by the manufacturer. Binding and kinetic assays were performed in 10 mM HEPES, pH 8.0, 150 mM NaCl, 10 mM DTT and 3 mM EDTA at a flow rate of 5 µL/min. The peptides were used at concentrations ranging from 50–700 µM. Dissociation was initiated by replacing the analyte with buffer. The association and dissociation curves were monitored for 600 sec. Sensograms were analyzed with BIA-evaluation software version 2 (BIAcore AB). Sensograms for DLAR D1D2, DLAR D1HSSD2 and DLAR D1D2HSS were fitted to two-site binding equations. DLAR D1 and DLAR D2 sensograms were fitted using a single-site binding model.

DLAR D1HSS D2 = target: T2, DLAR D1HSS D2 (Drosophila melanogaster, UniProt P16621, C1670S); assay: Surface Plasmon Resonance peptide binding, DLAR D1HSS D2; settings: two-site model, read-out: ka
T2 construct: DLAR 1448-2029; His tag (pET-15b or pET-22b); made in house; host or cells: E. coli BL21(DE3)
T2 sequence (P16621 1448-2029 C1670S): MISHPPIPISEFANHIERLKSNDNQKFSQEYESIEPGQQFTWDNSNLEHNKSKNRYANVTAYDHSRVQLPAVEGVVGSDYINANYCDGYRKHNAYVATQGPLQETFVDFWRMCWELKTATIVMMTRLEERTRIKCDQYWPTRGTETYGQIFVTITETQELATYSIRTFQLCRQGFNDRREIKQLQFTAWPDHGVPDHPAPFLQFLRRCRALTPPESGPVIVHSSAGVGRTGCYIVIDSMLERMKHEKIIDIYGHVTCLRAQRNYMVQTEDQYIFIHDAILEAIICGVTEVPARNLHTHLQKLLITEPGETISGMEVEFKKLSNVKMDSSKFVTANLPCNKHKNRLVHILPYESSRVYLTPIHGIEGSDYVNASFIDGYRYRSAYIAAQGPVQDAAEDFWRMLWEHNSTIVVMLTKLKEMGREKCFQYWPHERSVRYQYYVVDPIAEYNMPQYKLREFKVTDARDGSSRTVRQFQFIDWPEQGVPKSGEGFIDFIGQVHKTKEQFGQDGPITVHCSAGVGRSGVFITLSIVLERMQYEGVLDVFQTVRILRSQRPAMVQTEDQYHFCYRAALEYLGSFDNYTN
Protocol: as §1

DLAR D1 = target: T3, DLAR D1 (Drosophila melanogaster, UniProt P16621); assay: Phosphatase assay using pNPP, DLAR D1; type: biochemical; settings: CGH buffer pH 6.5, 100 mM NaCl, 2 mM DTT
T3 construct: DLAR 1448-1746; His tag (pET-15b or pET-22b); made in house; host or cells: E. coli BL21(DE3)
T3 sequence (P16621 1448-1746): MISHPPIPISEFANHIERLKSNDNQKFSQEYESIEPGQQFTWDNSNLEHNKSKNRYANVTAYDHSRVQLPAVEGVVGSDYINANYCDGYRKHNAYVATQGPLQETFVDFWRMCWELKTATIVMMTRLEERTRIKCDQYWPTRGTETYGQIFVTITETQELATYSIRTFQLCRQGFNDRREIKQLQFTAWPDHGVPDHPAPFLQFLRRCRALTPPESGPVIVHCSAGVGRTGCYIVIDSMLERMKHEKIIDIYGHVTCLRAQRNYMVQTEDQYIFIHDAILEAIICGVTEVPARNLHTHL
Protocol: Phosphatase activity of the recombinant PTP domains was determined by using para-Nitrophenylphosphate (pNPP), a small molecule generic substrate, as well as phosphotyrosine containing peptides. The pNPP assay was performed as reported previously, with a modification in the buffer composition (25 mM Citrate, Glycine and HEPES (CGH), pH 6.5, 100 mM NaCl and 2 mM DTT). Phosphatase activity with the phosphotyrosine peptides was ascertained by the malachite green reaction as described for PTPs previously. Briefly, the reaction mixture comprised of 0.01 µM protein incubated with increasing concentrations of different peptides in 25 mM citrate buffer pH 6.0, 100 mM NaCl and 2 mM DTT for 15 min at 25°C. The reaction was stopped by the addition of the Biomol Green reagent (Enzo Life Sciences) and the colour developed after 20 min was quantified at 650 nm. For all the assays, kinetic constants for the steady state catalysis were obtained by fitting the reaction curves to the Michaelis-Menten equation using the nonlinear regression module of Sigma plot software (Systat Software, Inc.).
The tandem PTP domains of PTP99A (PTP99A D1D2) and DLAR (DLAR D1D2) , the individual PTP domains (D1 and D2) as well as the active site mutants were expressed in E. coli and were purified using the protocols described earlier (Figure 1a, Figure S1a, b & c). The biochemical characterization and catalytic activity measurements were performed using pNPP as a substrate. […] Thus the D2 domain appears to have a regulatory role in both RPTPs- decreasing the catalytic activity in the case of DLAR while increasing the catalytic activity in the case of PTP99A (Figure 1b).

| Structure (SMILES) | kon (DLAR D2; SPR Biacore-2000, 25°C, 10 mM HEPES pH 8.0, 150 mM NaCl, 10 mM DTT, 3 mM EDTA, peptides 50–700 µM, read-out: ka) | Kd (DLAR D2; SPR, 25°C, pH 8.0) | kon (DLAR D1HSS D2; pH 8, SPR Biacore-2000, 25°C, 10 mM HEPES pH 8.0, 150 mM NaCl, 10 mM DTT, 3 mM EDTA, peptides 50–700 µM, first binding site) | kon (DLAR D1HSS D2; pH 8, SPR, 25°C, pH 8.0, second binding site) | Kcat (DLAR D1) | Kcat/Km (DLAR D1) | Vmax (DLAR D1; Michaelis-Menten fit) |
| --- | --- | --- | --- | --- | --- | --- | --- |
| CC(C)C[C@H](NC(=O)[C@H](C)NC(=O)CNC(=O)[C@H](Cc1ccc(OP(=O)(O)O)cc1)NC(=O)[C@H](CC(=O)O)NC(=O)[C@@H]1CCCN1C(=O)[C@H](CCC(=O)O)NC(=O)[C@H](C)NC(=O)[C@@H](N)[C@@H](C)O)C(=O)N[C@@H](Cc1ccc(O)cc1)C(=O)N[C@@H](CCC(=O)O)C(=O)O [Cuticle peptide] (H-TAEPD[pY]GALYE-OH) | 52.8 ± 0.69 M⁻¹ s⁻¹ | 104.5 ± 0.06 µM | 74.7 ± 2.41 M⁻¹ s⁻¹ | 28800 ± 8e+06 M⁻¹ s⁻¹ |  |  |  |
| O=[N+]([O-])c1ccc(OP(=O)(O)O)cc1 [pNPP, para-Nitrophenylphosphate] |  |  |  |  | 16.10 ± 0.27 s⁻¹ | 16.03 ± 0.11 x 10^3 sec^-1M^-1 | 20.56 µmol/min/mg and 20.56 ± 0.34 µmol/min/mg |
